Drawing on PubChem BioAssay AID220 (DTP/NCI, 2004), this text covers T/C for 16 molecules.

Several values for one entry are separate records, joined by “and”; a condition that tells them apart may be missing. Equal values may be shown once. Results filed as inconclusive are left out. Starred links: 1 amine or outer side, 2 acyl side, 3 side chain; linkers in the order of their positions; H or OH if unused. Positions of bridges follow the written chain, without caps; N, C: chain ends. Non-standard residues stand in square brackets, D forms with d. Residues, ends and D or L forms follow the SMILES beside them. Chains are numbered I, II in the order given. Actinocin(9to1) = Cc1c2oc3c(C)ccc(C(=O)[*:1])c3nc-2c(C(=O)[*:2])c(N)c1=O; NMeV = CN[CH](C(=O)O)C(C)C; Sar = CNCC(=O)O

This assay concerns CD8F1 mice, subcutaneous mammary adenocarcinoma, T/C%. Put plainly: NCI In Vivo Anticancer Drug Screen. Data for tumor model Mammary Adenocarcinoma CD8F1 (subcutaneous) in CD8F1. The conditions noted are these: higher = larger tumour. The gist of the method: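 Compound-treated versus vehicle-treated mice with transplantable tumors; survival or tumor size compared as T/C.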
[1] abbreviates: endpoint: median tumor weight (est.), dose: 12.5 mg/kg/injection, schedule: Q07DX005 (ip), vehicle: saline with Tween-80.
Where [2] appears, read: endpoint: median tumor weight (est.), dose: 12.5 mg/kg/injection, schedule: Q07DX005 (ip), vehicle: Klucel (hydroxypropylcellulose) (HPC).
Setting [3] is: endpoint: median tumor weight (est.), dose: 25.0 mg/kg/injection, schedule: Q07DX005 (ip), vehicle: Klucel (hydroxypropylcellulose) (HPC).
Where [4] appears, read: endpoint: median tumor weight (est.), dose: 50.0 mg/kg/injection, schedule: Q07DX005 (ip), vehicle: Klucel (hydroxypropylcellulose) (HPC).
Setting [5] is: endpoint: median tumor weight (est.), dose: 100.0 mg/kg/injection, schedule: Q07DX005 (ip), vehicle: Klucel (hydroxypropylcellulose) (HPC).
[6] abbreviates: endpoint: median tumor weight (est.), dose: 25.0 mg/kg/injection, schedule: Q07DX005 (ip), vehicle: saline with Tween-80.
The mark [7] stands for this setting: endpoint: median tumor weight (est.), dose: 50.0 mg/kg/injection, schedule: Q07DX005 (ip), vehicle: saline with Tween-80.
The mark [8] stands for this setting: endpoint: median tumor weight (est.), dose: 200.0 mg/kg/injection, schedule: Q07DX005 (ip), vehicle: saline with Tween-80.
[9] abbreviates: endpoint: median tumor weight (est.), dose: 400.0 mg/kg/injection, schedule: Q07DX005 (ip), vehicle: saline with Tween-80.
[10] abbreviates: endpoint: median tumor weight change, dose: 62.5 mg/kg/injection, schedule: Q01DX001 (ip), vehicle: saline with Tween-80.

Turning to `CN1C(=O)NC(c2ccc(Cl)cc2)(c2ccc(Cl)cc2)C1=O`, the T/C (endpoint: median tumor weight change, dose: 125.0 mg/kg/injection, schedule: Q01DX001 (ip), vehicle: distilled water + Tween-80) was 98 % of control; the T/C (endpoint: median tumor weight change, dose: 250.0 mg/kg/injection, schedule: Q01DX001 (ip), vehicle: distilled water + Tween-80) was 80 % of control; the T/C (endpoint: median tumor weight change, dose: 500.0 mg/kg/injection, schedule: Q01DX001 (ip), vehicle: distilled water + Tween-80) is 70 % of control; the T/C (endpoint: median tumor weight change, dose: 1000.0 mg/kg/injection, schedule: Q01DX001 (ip), vehicle: distilled water + Tween-80) is 40 % of control.
Regarding `C1CN2CCC1CC2`, the T/C is 111 % of control (endpoint: median tumor weight (est.), dose: 6.25 mg/kg/injection, schedule: Q07DX005 (ip), vehicle: saline with Tween-80) and 77 % of control under setting [1].
With `Cc1c2oc3c(C)ccc(C(=O)NC4C(=O)NC(C(C)C)C(=O)N5CCCC5C(=O)N(C)CC(=O)N(C)C(C(C)C)C(=O)OC4C)c3nc-2c(C(=O)NC2C(=O)NC(C(C)C)C(=O)N3CCCC3C(=O)N(C)CC(=O)N(C)C(C(C)C)C(=O)OC2C)c(N)c1=O` (centres undefined) (I: TVP[Sar][NMeV] / II: TVP[Sar][NMeV]; ester I:1-I:C, II:1-II:C; linker I:N-II:N via Actinocin(9to1); configuration not given here), the T/C runs as follows: (endpoint: median tumor weight (est.), dose: 0.5 mg/kg/injection, schedule: Q07DX005 (ip), vehicle: saline) 26 % of control and 30 % of control; (endpoint: median tumor weight (est.), dose: 1.0 mg/kg/injection, schedule: Q07DX005 (ip), vehicle: saline) 3 % of control and 20 % of control.
In the case of `CNC(=O)/C=C/C1=CN2C(=O)c3ccc(C)c(O)c3NC(OC)C2C1` (centres undefined), the T/C is 70 % of control (endpoint: median tumor weight change, dose: 0.03 mg/kg/injection, schedule: Q01DX001 (ip), vehicle: suspension in saline); 51 % of control (endpoint: median tumor weight change, dose: 0.07 mg/kg/injection, schedule: Q01DX001 (ip), vehicle: suspension in saline); 150 % of control (endpoint: median tumor weight change, dose: 0.31 mg/kg/injection, schedule: Q01DX001 (ip), vehicle: saline); 83 % of control (endpoint: median tumor weight change, dose: 0.62 mg/kg/injection, schedule: Q01DX001 (ip), vehicle: saline).
Take `Cn1c(=O)c2ncnnc2n(C)c1=O`: the T/C reads like this: (endpoint: median tumor weight (est.), dose: 4.7 mg/kg/injection, schedule: Q07DX005 (ip), vehicle: Klucel (hydroxypropylcellulose) (HPC)) 59 % of control; (endpoint: median tumor weight (est.), dose: 9.4 mg/kg/injection, schedule: Q07DX005 (ip), vehicle: Klucel (hydroxypropylcellulose) (HPC)) 63 % of control; (endpoint: median tumor weight (est.), dose: 18.8 mg/kg/injection, schedule: Q07DX005 (ip), vehicle: Klucel (hydroxypropylcellulose) (HPC)) 52 % of control.
Consider `[I][Hg][CH2]C1OCCOC1[CH2][Hg][I]` (centres undefined), for which the T/C by setting is: under setting [2], 96 % of control; under setting [3], 100 % of control; under setting [4], 85 % of control; under setting [5], 76 % of control; (endpoint: median tumor weight (est.), dose: 200.0 mg/kg/injection, schedule: Q07DX005 (ip), vehicle: Klucel (hydroxypropylcellulose) (HPC)) 52 % of control.
Consider `OCCOCCN1CCN(CCCN2c3ccccc3Sc3ccc(C(F)(F)F)cc32)CC1`, for which the T/C (endpoint: median tumor weight (est.), dose: 3.12 mg/kg/injection, schedule: Q07DX005 (ip), vehicle: saline) was 53 % of control; the T/C (endpoint: median tumor weight (est.), dose: 6.25 mg/kg/injection, schedule: Q07DX005 (ip), vehicle: saline) was 97 % of control; the T/C (endpoint: median tumor weight (est.), dose: 12.5 mg/kg/injection, schedule: Q07DX005 (ip), vehicle: saline) was 95 % of control; the T/C (endpoint: median tumor weight (est.), dose: 25.0 mg/kg/injection, schedule: Q07DX005 (ip), vehicle: saline) was 71 % of control; the T/C (endpoint: median tumor weight (est.), dose: 50.0 mg/kg/injection, schedule: Q07DX005 (ip), vehicle: saline) is 97 % of control.
Turning to `CC(Cc1ccc(O)cc1)NCC(O)c1ccc(O)c(O)c1` (centres undefined), the T/C was 49 % of control under setting [1]; 90 % of control under setting [6]; 106 % of control under setting [7]; 110 % of control under setting [8]; 84 % of control under setting [9].
Take `CC1(C)COCN1COCCOCN1COCC1(C)C`: the T/C by setting is: (endpoint: median tumor weight change, dose: 25.0 mg/kg/injection, schedule: Q01DX001 (ip), vehicle: saline) 100 % of control; (endpoint: median tumor weight change, dose: 50.0 mg/kg/injection, schedule: Q01DX001 (ip), vehicle: saline) 109 % of control; (endpoint: median tumor weight change, dose: 100.0 mg/kg/injection, schedule: Q01DX001 (ip), vehicle: saline) 95 % of control.
Take `CCOC(=O)C(C)(C)Oc1ccc(Cl)cc1`: the T/C is 61 % of control under setting [1]; 113 % of control under setting [6]; 84 % of control under setting [7]; 72 % of control (endpoint: median tumor weight (est.), dose: 100.0 mg/kg/injection, schedule: Q07DX005 (ip), vehicle: saline with Tween-80); 77 % of control under setting [8]; 64 % of control under setting [9].
Take `Nc1nc2n[nH]nc2c(=O)[nH]1`: the T/C was 73 % of control (endpoint: median tumor weight change, dose: 250.0 mg/kg/injection, schedule: Q01DX001 (ip), vehicle: suspension in saline) and 45 % of control (endpoint: median tumor weight change, dose: 500.0 mg/kg/injection, schedule: Q01DX001 (ip), vehicle: suspension in saline).
In the case of `O=C1N=C(Oc2ccccc2)SC1=O`, the T/C runs as follows: under setting [10], 43 % of control; (endpoint: median tumor weight change, dose: 125.0 mg/kg/injection, schedule: Q01DX001 (ip), vehicle: DMSO) 66 % of control.
Take `COc1ccc2c(c1[N+](=O)[O-])CC[C@@H]1[C@@H]2CC[C@]2(C)C(=O)CC[C@@H]12`: the T/C is 90 % of control under setting [10]; 84 % of control (endpoint: median tumor weight change, dose: 250.0 mg/kg/injection, schedule: Q01DX001 (ip), vehicle: saline with Tween-80); 100 % of control (endpoint: median tumor weight change, dose: 500.0 mg/kg/injection, schedule: Q01DX001 (ip), vehicle: saline with Tween-80).
As for `C[C@H](N)C(=O)N[C@@H]1[C@H]2C(=C(O)C[C@@H](O)[C@@H]2O)C(=O)O[C@@H]1C`, the T/C runs as follows: (endpoint: median tumor weight change, dose: 125.0 mg/kg/injection, schedule: Q01DX001 (ip), vehicle: saline) 101 % of control; (endpoint: median tumor weight change, dose: 250.0 mg/kg/injection, schedule: Q01DX001 (ip), vehicle: saline) 120 % of control; (endpoint: median tumor weight change, dose: 1000.0 mg/kg/injection, schedule: Q01DX001 (ip), vehicle: saline) 57 % of control; (endpoint: median tumor weight change, dose: 2000.0 mg/kg/injection, schedule: Q01DX001 (ip), vehicle: saline) 86 % of control.
`COc1ccc2c(c1)CCC(c1ccccc1)=C2c1ccc(OCCN2CCCC2)cc1`: the T/C is, setting by setting: (endpoint: median tumor weight (est.), dose: 6.25 mg/kg/injection, schedule: Q07DX005 (ip), vehicle: Klucel (hydroxypropylcellulose) (HPC)) 119 % of control; under setting [2], 99 % of control and 103 % of control; under setting [3], 92 % of control and 111 % of control; under setting [4], 77 % of control and 80 % of control; under setting [5], 75 % of control and 95 % of control.
`NC(=O)c1ncn2c(=O)n(CCCl)nnc12`: the T/C is 69 % of control (endpoint: median tumor weight change, dose: 6.25 mg/kg/injection, schedule: Q01DX001 (ip), vehicle: suspension in saline); 76 % of control (endpoint: median tumor weight change, dose: 12.5 mg/kg/injection, schedule: Q01DX001 (ip), vehicle: suspension in saline); 45 % of control (endpoint: median tumor weight change, dose: 25.0 mg/kg/injection, schedule: Q01DX001 (ip), vehicle: suspension in saline); 41 % of control and 46 % of control (endpoint: median tumor weight change, dose: 50.0 mg/kg/injection, schedule: Q01DX001 (ip), vehicle: suspension in saline).
